From patent publication US12522602B2, “Derivatives having 2,3-dihydro-1H-indene or 2,3-dihydrobenzofuran moiety or pharmaceutically acceptable salt thereof and pharmaceutical compositions comprising the same” (YUHAN CORPORATION, priority 2019, dated 2026)

What follows are compounds tested on GM1 production in Jurkat cells (assay: cells). Settings: not given.
Format: cell-based

| Compound | IC50 |
| --- | --- |
| COc1cc2c(cc1-c1ccc(CC(C)C)cc1)CC(C)(C)C2NC(=O)O[C@@H]1CN2CCC1CC2 (stereo partly drawn) [Example 315, (S)-quinuclidin-3-yl (5-(4-isobutylphenyl)-6-methoxy-2,2-dimethyl-2,3-dihydro-1H-inden-1-yl)carbamate] | 11.3 nM |

Same assay, conditions: Homo sapiens, Jurkat, 72 h

| Compound | IC50 |
| --- | --- |
| COc1cc2c(cc1-c1ccc(C(C)C)cc1)CC(C)(C)C2NC(=O)O[C@@H]1CN2CCC1CC2 (stereo partly drawn) [Example 314, (S)-quinuclidin-3-yl (5-(4-isopropylphenyl)-6-methoxy-2,2-dimethyl-2,3-dihydro-1H-inden-1-yl)carbamate] | 7.7 nM |
| CC(=O)c1sccc1-c1ccc2c(c1)CC(C)(C)C2NC(=O)O[C@@H]1CN2CCC1CC2 (stereo partly drawn) [Example 272, (S)-quinuclidin-3-yl (5-(2-acetylthiophen-3-yl)-2,2-dimethyl-2,3-dihydro-1H-inden-1-yl)carbamate] | 49.3 nM |
| CC1(C)Cc2ccc(-c3ccc(OC(F)(F)F)cc3)cc2C1NC(=O)O[C@@H]1CN2CCC1CC2 (stereo partly drawn) [Example 52, (S)-quinuclidin-3-yl (2,2-dimethyl-6-(4-(trifluoromethoxy)phenyl)-2,3-dihydro-1H-inden-1-yl)carbamate] | 82.3 nM |
| Cc1ccc(-c2ccc3c(c2)C(NC(=O)O[C@@H]2CN4CCC2CC4)C(C)(C)C3)cc1 (stereo partly drawn) [Example 60, (S)-quinuclidin-3-yl (2,2-dimethyl-6-(p-tolyl)-2,3-dihydro-1H-inden-1-yl)carbamate] | 112 nM |
| COc1ccc(-c2cc3c(cc2F)C(NC(=O)O[C@@H]2CN4CCC2CC4)C(C)(C)C3)c(Cl)c1 (stereo partly drawn) [Example 386, (S)-quinuclidin-3-yl (5-(2-chloro-4-methoxyphenyl)-6-fluoro-2,2-dimethyl-2,3-dihydro-1H-inden-1-yl)carbamate] | 29.5 nM |
| Cc1cc(-c2ccc3c(c2)CC(C)(C)C3NC(=O)O[C@@H]2CN3CCC2CC3)co1 (stereo partly drawn) [Example 235, (S)-quinuclidin-3-yl (2,2-dimethyl-5-(5-methylfuran-3-yl)-2,3-dihydro-1H-inden-1-yl)carbamate] | 6.5 nM |
| Cc1cc(-c2ccc3c(c2)CC(C)(C)C3NC(=O)O[C@@H]2CN3CCC2CC3)ccc1OC(F)(F)F (stereo partly drawn) [Example 247, (S)-quinuclidin-3-yl (2,2-dimethyl-5-(3-methyl-4-(trifluoromethoxy)phenyl)-2,3-dihydro-1H-inden-1-yl)carbamate] | 41 nM |
| O=C(NC1CCc2ccc(-c3ccc(F)cc3)cc21)O[C@@H]1CN2CCC1CC2 (stereo partly drawn) [Example 25, (S)-quinuclidin-3-yl (6-(4-fluorophenyl)-2,3-dihydro-1H-inden-1-yl)carbamate] | 106 nM |
| CCOc1c(C)cc(-c2cc3c(cc2OC)C(NC(=O)O[C@@H]2CN4CCC2CC4)C(C)(C)C3)cc1C (stereo partly drawn) [Example 330, (S)-quinuclidin-3-yl (5-(4-ethoxy-3,5-dimethylphenyl)-6-methoxy-2,2-dimethyl-2,3-dihydro-1H-inden-1-yl)carbamate] | 52.7 nM |
| COc1ccc(-c2cc3c(cc2F)C(NC(=O)O[C@@H]2CN4CCC2CC4)C(C)(C)C3)c(F)c1 (stereo partly drawn) [Example 360, (S)-quinuclidin-3-yl (6-fluoro-5-(2-fluoro-4-methoxyphenyl)-2,2-dimethyl-2,3-dihydro-1H-inden-1-yl)carbamate] | 39 nM |
| CC1(C)Cc2cc(/C=C/C3CCCCC3)ccc2C1NC(=O)O[C@@H]1CN2CCC1CC2 (stereo partly drawn) [Example 275, (S)-quinuclidin-3-yl (5-((E)-2-cyclohexylvinyl)-2,2-dimethyl-2,3-dihydro-1H-inden-1-yl)carbamate] | 25 nM |
| O=C(NC1CCc2ccc(-c3cc(Cl)ccc3Cl)cc21)O[C@@H]1CN2CCC1CC2 (stereo partly drawn) [Example 46, (S)-quinuclidin-3-yl (6-(2,5-dichlorophenyl)-2,3-dihydro-1H-inden-1-yl)carbamate] | 19.2 nM |
| CCCCc1ccc(-c2cc3c(cc2F)C(NC(=O)O[C@@H]2CN4CCC2CC4)C(C)(C)C3)cc1 (stereo partly drawn) [Example 365, (S)-quinuclidin-3-yl (5-(4-butylphenyl)-6-fluoro-2,2-dimethyl-2,3-dihydro-1H-inden-1-yl)carbamate] | 2.4 nM |
| COc1c(C)cc(-c2cc3c(cc2F)C(NC(=O)O[C@@H]2CN4CCC2CC4)C(C)(C)C3)cc1C (stereo partly drawn) [Example 366, (S)-quinuclidin-3-yl (6-fluoro-5-(4-methoxy-3,5-dimethylphenyl)-2,2-dimethyl-2,3-dihydro-1H-inden-1-yl)carbamate] | 79.4 nM |
| CCc1ccc(-c2ccc3c(c2)CC(C)(C)C3NC(=O)O[C@@H]2CN3CCC2CC3)cc1 (stereo partly drawn) [Example 147, (S)-quinuclidin-3-yl (5-(4-ethylphenyl)-2,2-dimethyl-2,3-dihydro-1H-inden-1-yl)carbamate] | 14 nM |
| CC1(C)Cc2ccc(-c3ccccc3C(F)(F)F)cc2C1NC(=O)O[C@@H]1CN2CCC1CC2 (stereo partly drawn) [Example 59, (S)-quinuclidin-3-yl (2,2-dimethyl-6-(2-(trifluoromethyl)phenyl)-2,3-dihydro-1H-inden-1-yl)carbamate] | 164 nM |
| CC(C)(C)c1ccc(-c2ccc3c(c2)CC(C)(C)C3NC(=O)O[C@@H]2CN3CCC2CC3)cc1 (stereo partly drawn) [Example 146, (S)-quinuclidin-3-yl (5-(4-(tert-butyl)phenyl)-2,2-dimethyl-2,3-dihydro-1H-inden-1-yl)carbamate] | 14.1 nM |
| CC(C)Oc1cc(-c2ccc3c(c2)CC(C)(C)C3NC(=O)O[C@@H]2CN3CCC2CC3)ccn1 (stereo partly drawn) [Example 264, (S)-quinuclidin-3-yl (5-(2-isopropoxypyridin-4-yl)-2,2-dimethyl-2,3-dihydro-1H-inden-1-yl)carbamate] | 14.4 nM |
| COc1cc(F)c(-c2ccc3c(c2)CC(C)(C)C3NC(=O)O[C@@H]2CN3CCC2CC3)cc1F (stereo partly drawn) [Example 171, (S)-quinuclidin-3-yl (5-(2,5-difluoro-4-methoxyphenyl)-2,2-dimethyl-2,3-dihydro-1H-inden-1-yl)carbamate] | 17 nM |
| CCOc1ccc(-c2ccc3c(c2)CC(C)(C)C3NC(=O)O[C@@H]2CN3CCC2CC3)cc1 (stereo partly drawn) [Example 160, (S)-quinuclidin-3-yl (5-(4-ethoxyphenyl)-2,2-dimethyl-2,3-dihydro-1H-inden-1-yl)carbamate] | 22.7 nM |
| CC(C)COc1ccc(-c2ccc3c(c2)CC(C)(C)C3NC(=O)O[C@@H]2CN3CCC2CC3)cn1 (stereo partly drawn) [Example 268, (S)-quinuclidin-3-yl (5-(6-isobutoxypyridin-3-yl)-2,2-dimethyl-2,3-dihydro-1H-inden-1-yl)carbamate] | 2.5 nM |
| O=C(NC1CCc2cc(-c3cc(Cl)ccc3Cl)ccc21)O[C@@H]1CN2CCC1CC2 (stereo partly drawn) [Example 24, (S)-quinuclidin-3-yl (5-(2,5-dichlorophenyl)-2,3-dihydro-1H-inden-1-yl)carbamate] | 17.4 nM |
| CC1(C)Cc2ccc(-c3cccc(C(F)(F)F)c3)cc2C1NC(=O)O[C@@H]1CN2CCC1CC2 (stereo partly drawn) [Example 55, (S)-quinuclidin-3-yl (2,2-dimethyl-6-(3-(trifluoromethyl)phenyl)-2,3-dihydro-1H-inden-1-yl)carbamate] | 173 nM |
| CCCc1ccc(-c2cc3c(cc2OC)C(NC(=O)O[C@@H]2CN4CCC2CC4)C(C)(C)C3)cc1 (stereo partly drawn) [Example 313, (S)-quinuclidin-3-yl (6-methoxy-2,2-dimethyl-5-(4-propylphenyl)-2,3-dihydro-1H-inden-1-yl)carbamate] | 7.3 nM |
| CCCOc1ccc(-c2ccc3c(c2)CC(C)(C)C3NC(=O)O[C@@H]2CN3CCC2CC3)cc1 (stereo partly drawn) [Example 135, (S)-quinuclidin-3-yl (2,2-dimethyl-5-(4-propoxyphenyl)-2,3-dihydro-1H-inden-1-yl)carbamate] | 8.1 nM |
